Measured values: PubChem BioAssay AID248 (DTP/NCI, 2004)
Toxic doses and inconclusive results are not listed. Rule as the data show it: active = T/C of 150% or more; inactive = T/C below 125%.

Test system: L1210 leukemia ip in BDF1 mice, survival T/C
Test: NCI In Vivo Anticancer Drug Screen. Data for tumor model L1210 Leukemia (intraperitoneal) in B6D2F1 (BDF1) mice
Conditions: endpoint: mean survival time, higher = longer survival
How it was run: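 Read-out is survival time, reported as the treated-group measurement over the vehicle-control measurement.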

[1] = dose: 100.0 mg/kg/injection, schedule: Q01DX001 (ip), vehicle: saline
[2] = dose: 200.0 mg/kg/injection, schedule: Q01DX001 (ip), vehicle: saline
[3] = dose: 400.0 mg/kg/injection, schedule: Q01DX001 (ip), vehicle: saline

Measured: T/C

CCCCN(C)/N=N/c1nc[nH]c1C(=O)OC
inactive: dose: 33.0 mg/kg/injection, schedule: Q01DX015 (ip), vehicle: carboxymethylcellulose (CMC) 108 % of control | dose: 45.0 mg/kg/injection, schedule: Q01DX015 (ip), vehicle: carboxymethylcellulose (CMC) 117 % of control | dose: 60.0 mg/kg/injection, schedule: Q01DX015 (ip), vehicle: carboxymethylcellulose (CMC) 95 % of control | dose: 75.0 mg/kg/injection, schedule: Q01DX015 (ip), vehicle: carboxymethylcellulose (CMC) 86 % of control | dose: 100.0 mg/kg/injection, schedule: Q01DX001 (ip), vehicle: carboxymethylcellulose (CMC) 98 % of control | dose: 200.0 mg/kg/injection, schedule: Q01DX001 (ip), vehicle: carboxymethylcellulose (CMC) 104 % of control | dose: 400.0 mg/kg/injection, schedule: Q01DX001 (ip), vehicle: carboxymethylcellulose (CMC) 124 % of control

CCc1ccc(NC(=O)Nc2ccc(OC)cc2)cc1
inactive: dose: 100.0 mg/kg/injection, schedule: Q01DX009 (ip), vehicle: gum acacia 97 % of control | dose: 100.0 mg/kg/injection, schedule: Q04DX003 (ip), vehicle: gum acacia 95 % of control | dose: 200.0 mg/kg/injection, schedule: Q01DX009 (ip), vehicle: gum acacia 92 % of control | dose: 200.0 mg/kg/injection, schedule: Q04DX003 (ip), vehicle: gum acacia 92 % of control | dose: 400.0 mg/kg/injection, schedule: Q01DX009 (ip), vehicle: gum acacia 91 % of control | dose: 400.0 mg/kg/injection, schedule: Q04DX003 (ip), vehicle: gum acacia 94 % of control

CCOC(=O)CNC(=O)NCc1ccccc1
inactive: dose: 100.0 mg/kg/injection, schedule: Q01DX009 (ip), vehicle: saline with Tween-80 106 % of control | dose: 200.0 mg/kg/injection, schedule: Q01DX009 (ip), vehicle: saline with Tween-80 102 % of control | dose: 400.0 mg/kg/injection, schedule: Q01DX009 (ip), vehicle: saline with Tween-80 105 % of control

O=c1c2c(oc3c(Cl)cc(Cl)cc13)CCCC2
inactive: dose: 50.0 mg/kg/injection, schedule: Q04DX002 (ip), vehicle: gum acacia 100 % of control | dose: 100.0 mg/kg/injection, schedule: Q04DX002 (ip), vehicle: gum acacia 104 % of control | dose: 200.0 mg/kg/injection, schedule: Q04DX002 (ip), vehicle: gum acacia 104 % of control

Cc1cnc(C(=O)O)c(N)n1
inactive: dose: 75.0 mg/kg/injection, schedule: Q01DX001 (ip), vehicle: saline 105 % of control | dose: 150.0 mg/kg/injection, schedule: Q01DX001 (ip), vehicle: saline 93 % of control

CC(=O)Nc1ccc(OCc2ccccc2)cc1[N+](=O)[O-]
inactive: dose: 50.0 mg/kg/injection, schedule: Q01DX001 (ip), vehicle: saline 95 % of control | [1] 101 % of control | [2] 98 % of control | [3] 93 % of control

C=CCOc1ccc(C=O)cc1OCC=C
inactive: dose: 100.0 mg/kg/injection, schedule: Q04DX003 (ip), vehicle: Klucel (hydroxypropylcellulose) (HPC) 101 % of control | dose: 200.0 mg/kg/injection, schedule: Q04DX003 (ip), vehicle: Klucel (hydroxypropylcellulose) (HPC) 96 % of control | dose: 400.0 mg/kg/injection, schedule: Q04DX003 (ip), vehicle: Klucel (hydroxypropylcellulose) (HPC) 101 % of control

CC(=O)OC1COC(n2cnc3c(N4CCCCC4)ncnc32)C(OC(C)=O)C1OC(C)=O (stereo unspecified)
inactive: [1] 100 % of control | [2] 96 % of control | [3] 96 % of control
